Data taken from patent publication US4218443A, “Polyether ionophores as antiobesity and hypotriglyceridemic agents” (Hoffmann-La Roche Inc., priority 1979, dated 1980).
Where two headings read alike, the source gives them in different places.

Columns and labels:
pancreatic lipase = biological target: T1, pancreatic lipase (Rattus norvegicus, UniProt P27657); assay: In vitro pancreatic lipase screen ([14C]-triolein assay); assay type: biochemical; settings: read-out: Pancreatic Lipase Activity I50
T1 construct: stimulated to release pancreatic proteins by addition of 10^-5 M carbachol; from tissue; host or cells: pancreatic lobules of fasted Charles River female rats; released pancreatic juice, centrifuged
T1 sequence (P27657 17-465): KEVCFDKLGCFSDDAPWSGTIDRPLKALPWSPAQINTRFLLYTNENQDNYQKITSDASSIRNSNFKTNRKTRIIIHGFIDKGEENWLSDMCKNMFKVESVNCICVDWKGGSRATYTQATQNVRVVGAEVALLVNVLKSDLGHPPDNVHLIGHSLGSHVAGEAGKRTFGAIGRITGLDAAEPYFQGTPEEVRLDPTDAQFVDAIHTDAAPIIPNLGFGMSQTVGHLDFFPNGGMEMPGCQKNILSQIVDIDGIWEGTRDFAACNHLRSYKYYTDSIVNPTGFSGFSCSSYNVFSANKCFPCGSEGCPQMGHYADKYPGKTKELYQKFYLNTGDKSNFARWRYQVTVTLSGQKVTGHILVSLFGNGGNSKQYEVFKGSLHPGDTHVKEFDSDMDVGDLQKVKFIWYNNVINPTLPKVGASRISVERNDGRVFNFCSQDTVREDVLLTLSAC
Procedure: The method for assaying pacreatic lipase in vitro using [^14 C]-triolein was based on the method of Garfinkel and Schotz for lipoprotein lipase, [A. S. Garfinkel and M. C. Schotz (1972). […] Glycerol tri[1-^14 C]oleate (32 mM) was emulsified in 0.2 M Tris-HCl pH 8 containing 0.15 M NaCl, bovine serum albumin (15 mg/ml) and sodium taurocholate (1.4 mM) by sonication for three, one min intervals at 80 watts. Final assay volume was 1.0 ml. The reaction was initiated by the addition of enzyme and was allowed to proceed for 10 min. The reaction was linear for up to 20 min. The liberated free fatty acids were extracted into 0.1 M KOH and quantitated in a liquid scintillation counter using 2,5-bis-2-(5-tertbutylbenzoxazolyl)-tniophene (BBOT) scintillation fluid (Yorktown Research, South Hackensack, N.J.).
Ionophores were added to the above assay as solutions in either 90% ethanol or water, pH 8; 90% ethanol had no effect on the enzyme activity assayed by either method.

[1] = system: fatty acid synthesis in isolated hepatocytes; assay: In vitro fatty acid synthesis in isolated hepatocytes; assay type: cell-based, Charles River female rat; settings: for activity at 1 µM / activity at 5 µM / activity at 10 µM / activity at 100 µM / activity at 250 µM / activity at 500 µM / activity at 1000 µM / activity at 2000 µM: Rattus norvegicus, Hepatocyte, 1 h, pH 7.4; for activity at 1 µM: 0.001 mM; for activity at 5 µM: 0.005 mM; for activity at 10 µM: 0.010 mM; for activity at 100 µM: 0.100 mM; for activity at 250 µM: 0.250 mM; for activity at 500 µM: 0.5 mM; for activity at 2000 µM: 2.000 mM
Procedure: Hepatocytes were prepared from meal-fed Charles River female rats as described previously, [A. C. Sullivan, J. Triscari, J. G. Hamilton and J. A. Ontko (1977). Hypolipidemic activity of (-)-hydroxycitrate, Lipids, 12: 1-9]. Briefly, rats were anesthetized with Nembutal, livers were perfused in situ and hepatocytes were isolated in Krebs-Henseleit bicarbonate buffer, pH 7.4. Incubations with isolated hepatocytes were performed in triplicate at 37° C. Each incubation flask contained in a total volume of 2.1 ml, 10.5 mg cells (dry weight), 1 ml of Krebs-Henseleit buffer, pH 7.4, radioactive substrate (1 μCi [U-^14 C]alanine, 1 mCi^3 H2 O and 1 μmole alanine) and 0.3% glucose. The appropriate concentration of inhibitor was prepared in dimethylsulfoxide and added to the incubation flask. Dimethylsulfoxide had no effect on fatty acid synthesis. ^3 H2 O was used to determine the total rate of fatty acid synthesis independently of carbon precursors of acetyl CoA. [^14 C]alanine was used as an acetyl CoA precursor. Rates of fatty acid synthesis were determined as described previously, [A. C. Sullivan, J. Triscari, J. G. Hamilton and J. A. Ontko (1977). Hypolipidemic activity of (-)-hydroxycitrate, Lipids, 12: 1-9]. Data are expressed as nmoles ^3 H2 O or [^14 C]alanine converted into fatty acids per mg dry weight cells in 60 minutes.

[2] = read-out: Fatty Acid Synthesis 3H2O
[3] = read-out: Fatty Acid Synthesis [14C]alanine
[4] = 1.0 mM, read-out: Fatty Acid Synthesis 3H2O
[5] = 1.0 mM, read-out: Fatty Acid Synthesis [14C]alanine

CC[C@@H](C(=O)[C@@H](C)[C@@H](O)[C@H](C)CCc1ccc(C)c(OC(=O)c2ccc(Br)cc2)c1C(=O)O)[C@H]1O[C@](CC)([C@H]2CC[C@](O)(CC)[C@H](C)O2)C[C@@H]1C [Lasalocid 4-bromo benzoate]
IC50 (pancreatic lipase): 130 µM

CC[C@@H](C(=O)[C@@H](C)[C@@H](O)[C@H](C)CCc1ccc(C)c(O)c1C(=O)O)[C@H]1O[C@](CC)([C@H]2CC[C@](O)(CC)[C@H](C)O2)C[C@@H]1C [Lasalocid]
IC50 (pancreatic lipase): 100 µM

CO[C@@H]1C[C@@H](C[C@H]2CC[C@H](C)[C@H]([C@@H](C)C(=O)O)O2)O[C@]2(O[C@](C)([C@H]3CC[C@@](C)([C@@H]4O[C@@H]([C@H]5O[C@@](O)(CO)[C@H](C)C[C@@H]5C)C[C@@H]4C)O3)C[C@H]2C)[C@@H]1C [Nigericin]
IC50 (pancreatic lipase): 2500 µM

CO[C@H]1CC[C@H](O[C@@H]2C[C@@H]([C@@H](C)/C=C(\C)C(=O)[C@H](C)C[C@H](C)C(=O)O)O[C@@]3(CC[C@@](C)([C@H]4CC[C@@H](C)[C@@]5(O[C@@H]([C@H]6O[C@@](O)(CO)[C@H](C)C[C@@H]6C)C[C@@H]5C)O4)O3)[C@@H]2C)O[C@@H]1C [A-130A (Lenoremycin)]
IC50 (pancreatic lipase): 150 µM

CC[C@@H](C(=O)[C@@H](C)[C@@H](O)[C@H](C)CCc1ccc(C)c(O)c1C(=O)O)[C@H]1O[C@](CC)([C@H]2CC[C@](O)(CC)[C@H](C)O2)C[C@@H]1C [Lasalocid,Sodium]
activity at 1 µM [1, 2]: 97% | activity at 1 µM [1, 3]: 88% | activity at 5 µM [1, 2]: 74% | activity at 5 µM [1, 3]: 66% | activity at 10 µM [1, 2]: 61% | activity at 10 µM [1, 3]: 66% | activity at 100 µM [1, 2]: 4% | activity at 100 µM [1, 3]: 0% | activity at 250 µM [1, 2]: 6% | activity at 250 µM [1, 3]: 1% | activity at 500 µM [1, 2]: 7% | activity at 500 µM [1, 3]: 3% | activity at 1000 µM [1, 4]: 11% | activity at 1000 µM [1, 5]: 0%

CCCCCCCCCCCCCCCCCC(=O)Oc1c(C)ccc(CC[C@@H](C)[C@H](O)[C@H](C)C(=O)[C@H](CC)[C@H]2O[C@](CC)([C@H]3CC[C@](O)(CC)[C@H](C)O3)C[C@@H]2C)c1C(=O)O [Lasalocid Stearate]
IC50 (pancreatic lipase): 110 µM

Lysocellin
IC50 (pancreatic lipase): 800 µM

CCC(C(=O)C(C)C(O)C(C)CCc1ccc(C)c(O)c1C(=O)O)C1OC(CC)(C2CCC(CC)(C(C)O)O2)CC1C (stereo not drawn) [Isolasalocid A]
IC50 (pancreatic lipase): 390 µM

CCC(C(=O)O)C1CCC(C)C(C(C)C(O)C(C)C(=O)C(CC)C2OC3(C=CCC4(CCC(C)(C5CCC(O)(CC)C(C)O5)O4)O3)C(C)CC2C)O1 (stereo not drawn) [Deoxy-(0-8)-epi-17-salinomycin]
IC50 (pancreatic lipase): 600 µM

CC[C@@H](C(=O)[C@@H](C)[C@@H](O)[C@H](C)CCc1c(Cl)cc(C)c(O)c1C(=O)O)[C@H]1O[C@](CC)([C@H]2CC[C@](O)(CC)[C@H](C)O2)C[C@@H]1C [Chlorolasalocid]
IC50 (pancreatic lipase): 7000 µM

CCCCCC(=O)Oc1c(C)ccc(CC[C@@H](C)[C@H](O)[C@H](C)C(=O)[C@H](CC)[C@H]2O[C@](CC)([C@H]3CC[C@](O)(CC)[C@H](C)O3)C[C@@H]2C)c1C(=O)O [Lasalocid Hexanoate]
IC50 (pancreatic lipase): 200 µM

CNc1ccc2oc(C[C@H]3O[C@@]4(CC[C@H]3C)O[C@H]([C@H](C)C(=O)c3ccc[nH]3)[C@H](C)C[C@H]4C)nc2c1C(=O)O [Calcimycin]
Fatty Acid Synthesis 3H2O ([1]; 1.0 mM): 48 % of control | Fatty Acid Synthesis [14C]alanine ([1]; 1.0 mM): 0 % of control

CC[C@@H](C(=O)[C@@H](C)[C@@H](O)[C@H](C)CCc1c([N+](=O)[O-])cc(C)c(O)c1[N+](=O)[O-])[C@H]1O[C@](CC)([C@H]2CC[C@](O)(CC)[C@H](C)O2)C[C@@H]1C [Dinitrodescarboxylasalocid,Sodium]
activity at 1 µM [1, 2]: 113% | activity at 1 µM [1, 3]: 102% | activity at 5 µM [1, 2]: 116% | activity at 5 µM [1, 3]: 117% | activity at 10 µM [1, 2]: 160% | activity at 10 µM [1, 3]: 169% | activity at 100 µM [1, 2]: 2% | activity at 100 µM [1, 3]: 0% | activity at 250 µM [1, 2]: 3% | activity at 250 µM [1, 3]: 0% | activity at 500 µM [1, 2]: 3% | activity at 500 µM [1, 3]: 0% | activity at 1000 µM [1, 4]: 4% | activity at 1000 µM [1, 5]: 0% | activity at 2000 µM [1, 2]: 7% | activity at 2000 µM [1, 3]: 0%
